# From paper PMC6882484, “Influence of verapamil on the pharmacokinetics of oridonin in rats” (Pharmaceutical Biology, 2019)
# Like-named read-outs stand apart in the source and are kept apart here.
# Assays:
# [1] = In vivo pharmacokinetic study of oridonin in rats with or without verapamil pre-treatment; conditions: Sprague-Dawley, rat, plasma, po, intragastrical oridonin (40 mg/kg; n = 6, mean ± SD); for CL/F: read-out: CLz/F (oral clearance) (converted)
# Method: To evaluate the effects of verapamil on the pharmacokinetics of oridonin, the rats were divided into two groups of six animals each. The pre-treatment group was pre-treated with verapamil at a dose of 10 mg/kg/day (dissolved directly in normal saline containing 0.5% methylcellulose at a concentration of 2 mg/mL) for 7 days before the administration of oridonin. […] The dose of verapamil and oridonin were based on previous reports (Xu et al. [2006]; Zhu et al. [2017]; Huang et al. [2018]; Zhou et al. [2019]). The control group was without the pre-treatment of verapamil before the oral administration of oridonin. Blood samples (250 µL) were collected into heparinized tubes via the oculi chorioideae vein at 0.083, 0.33, 0.5, 1, 2, 4, 6, 8, 10, 12, 24 and 36 h after the oral administration of oridonin. The blood samples were centrifuged at 3500 rpm for 5 min. The plasma samples that were obtained were stored at −40 °C until analysis.
# To 100 µL aliquot of a plasma sample, 20 µL methanol and 180 µL internal standard methanol solution (2 ng/mL) were added and vortexed for 60 s to mix in a 1.5 mL polypropylene tube, and were centrifuged at 12,000 rpm for 10 min. The supernatant was removed into an injection vial, and a 3 µL aliquot was injected into the LC-MS/MS system for analysis.
# The determination of oridonin was performed on Agilent 1290 series liquid chromatography system and an Agilent 6470 triple-quadruple mass spectrometer (Palo Alto, CA, USA). The HPLC/MS conditions and sample preparation were basically according to a validated HPLC method described before (Jin et al. [2015]; Zhang et al. [2019]). The chromatographic analysis of oridonin was performed on a Waters X-Bridge C18 column (3.0 × 100 mm, i.d.; 3.5 µm, USA) at room temperature (25 °C). The mobile phase was water (containing 0.1% formic acid) and acetonitrile (30:70, v:v) with isocratic elution at a flow rate of 0.2 mL/min, and the analysis time was 4 min.
# The mass scan mode was positive MRM mode. The precursor ion and product ion are m/z 365.3→347.3 for oridonin and m/z 252.1→155.9 for IS. The collision energy for oridonin and IS were 30 and 20 eV, respectively. The MS/MS conditions were optimized as follows: fragmentor, 110 V; capillary voltage, 3.5 kV; nozzle voltage, 500 V; nebulizer gas pressure (N2), 40 psig; drying gas flow (N2), 10 L/min; gas temperature, 350 °C; sheath gas temperature, 400 °C; sheath gas flow, 11 L/min.
# The pharmacokinetic parameters, including the area under the plasma concentration-time curve (AUC), maximal plasma concentration (Cmax), the time for the maximal plasma concentration (Tmax), and the mean residence time (MRT) were calculated using the DAS 3.0 pharmacokinetic software (Chinese Pharmacological Association, Anhui, China).
# [2] = Metabolic stability in rat liver microsomes; type: in vitro ADME; conditions: for microsomal CLint at 1 µM: read-out: intrinsic clearance rate; for half-life at 1 µM: read-out: metabolic half-life (t1/2)
# Method: Rat liver microsomes were used to investigate the effects of verapamil on the metabolism clearance of oridonin, and the assay conditions and reaction mixtures were similar to those reported previously (Wang et al. [2017]; Yan et al. [2017]). In brief, 30 µL rat liver microsome (20 mg/mL), 12 µL oridonin solution (100 µM) and 1113 µL PBS buffer (0.1 M, pH 7.4) were added to the centrifuge tubes on ice. There was a 5 min preincubation step at 37 °C before initiating the reaction by adding NADPH-generating system (45 µL) into the microsomal suspension. The effects of verapamil or ketoconazole (a positive CYP3A4 inhibitor) on the metabolic stability of oridonin were investigated by adding 10 µM of verapamil or ketoconazole (12 µL, final concentration of 0.1 µM) to rat liver microsomes and preincubating them for 30 min at 37 °C, followed by the addition of NADPH-generating system. Aliquots of 100 µL were collected from the reaction volumes at 0.083, 0.167, 0.33, 0.5, 1, 2, 4, 8, 12, 24 and 36 h after the addition of oridonin, and 200 µL ice-cold acetonitrile containing esculin was added to terminate the reaction. All the experiments were performed in triplicate. The subsequent sample preparation method was same as the method of plasma sample preparation, and the concentration of oridonin was determined by LC-MS.
# The in vitro half-life (t1/2) was obtained using the equation: t1/2=0.693/k; V (µL/mg)=volume of incubation (µL)/protein in the incubation (mg); Intrinsic clearance (Clint) (µL/min/mg protein)=V × 0.693/t1/2.
# [3] = Bidirectional transport across Caco-2 cell transwell model; type: in vitro ADME; conditions: human, Caco-2, oridonin 2 µM; for Papp B→A at 2 µM: basolateral to apical
# Method: (§1) The Caco-2 cell line was obtained from the American Type Culture Collection (Manassas, VA, USA), and it was performed according to the previous study (Liu et al. [2018]). The Caco-2 cells were cultured in DMEM high glucose medium containing 15% FBS, 1% NEAA and 100 U/mL penicillin and 100 µg/mL streptomycin. The cells were cultured at 37 °C with 5% CO2. For transport studies, the cells at passage 40 were seeded on transwell polycarbonate insert filters (1.12 cm^2 surface, 0.4 µm pore size, 12 mm diameter; Corning Costar Corporation, MA, USA) in 12-well plates at a density of 1 × 10^5 cells/cm^2. Cells were allowed to grow for 21 days. For the first seven days, the medium was replaced every two days, and then daily. The transepithelial electrical resistance (TEER) of the monolayer cells was measured using Millicell ERS-2 (Millipore Corporation, Billerica, MA, USA), and TEER exceeding 400 Ω·cm^2 was used for the flux experiment. The integrity of the Caco-2 monolayers was confirmed by the paracellular flux of Lucifer yellow, which was less than 1% per hour. The alkaline phosphatase activity was validated using an Alkaline Phosphatase Assay Kit. The qualified monolayers were used for transport studies. Before the transport experiments, the cell monolayers were rinsed twice using warm (37 °C) HBSS, then the cells were incubated at 37 °C for 20 min. After preincubation, the cell monolayers were incubated with oridonin in fresh incubation medium added on either the apical or basolateral side for the indicated times at 37 °C. […] The permeability of oridonin (2 µM) in all of the above condition s for both directions, i.e., from the apical (AP) side to the basolateral (BL) side and from the BL side to the AP side, was measured after incubation for 30, 60, 90 and 120 min at 37 °C. In addition, the efflux activity of P-gp was validated using a typical P-gp substrate digoxin (25 µM). The apparent permeability coefficient (Papp) was calculated using the equation of Artursson and Karlsson: Papp=(ΔQ/Δt)×[1/(A×C0)] where Papp is the apparent permeability coefficient (cm/s), ΔQ/Δt (µmol/s) is the rate at which the compound appears in the receiver chamber, C0 (µmol/L) is the initial concentration of the compound in the donor chamber and A (cm^2) represents the surface area of the cell monolayer. Data were collected from three separate experiments, and each was performed in triplicate. In addition, the efflux activity of P-gp was validated using a typical P-gp substrate digoxin (25 µM).
# [4] = set-up: method as in Xu et al. [2006]; conditions: oral administration in rats; ref Xu et al. [2006]; cited from earlier work
# P-gp = test: Bidirectional transport across Caco-2 cell transwell model; type: in vitro ADME; conditions: human; Caco-2, digoxin 25 µM, P-gp substrate validation, without verapamil
# Method: as §1
# Caco-2 cell monolayers = test: as above; type: in vitro ADME; conditions: Caco-2, digoxin 25 µM, verapamil present
# Method: as §1
# [5] = pre-treatment of verapamil (10 mg/kg/day for 7 days)
# [6] = with verapamil (concentration not stated), verapamil present
smiles,measurement,setting,value
C=C1C(=O)[C@]23[C@H](O)[C@H]1CC[C@H]2[C@@]12CO[C@]3(O)[C@@H](O)[C@@H]1C(C)(C)CC[C@@H]2O [oridonin],Cmax,"[1]; 40 mg/kg, control without verapamil",147 ± 10.2 ng/mL
same,AUC(0-t),[1]; control without verapamil,1310 ± 290 ng·h/mL
same,MRT,[1]; control without verapamil,9.25 ± 1.1 h
same,Tmax,[1]; control without verapamil,1 ± 0.12 h
same,half-life,[1]; control without verapamil,10.9 ± 4.38 h
same,CL/F,[1]; control without verapamil,245 mL/min/kg
same,AUC(0-t),[1]; [5],2230 ± 530 ng·h/mL
same,Cmax,[1]; [5],194 ± 10.5 ng/mL
same,MRT,[1]; [5],11.5 ± 1.5 h
same,Tmax,[1]; [5],1 ± 0.18 h
same,half-life,[1]; [5],13.7 ± 4.81 h
same,CL/F,[1]; [5],135 mL/min/kg
same,microsomal CLint at 1 µM,"[2]; pH 7.4, oridonin alone",40.1 ± 2.5 µL/min/mg
same,half-life at 1 µM,"[2]; pH 7.4, oridonin alone",0.577 ± 0.045 h
same,half-life at 1 µM,"[2]; pH 7.4, with verapamil 0.1 µM, in the presence of verapamil",0.64 ± 0.055 h
same,microsomal CLint at 1 µM,"[2]; pH 7.4, with verapamil 0.1 µM, verapamil present",36.1 ± 3.7 µL/min/mg
same,efflux ratio at 2 µM,"[3]; pH 7.4, without verapamil",1.67
same,Papp B→A at 2 µM,[3]; [6],0.222 ± 0.032 ×10⁻⁶ cm/s
same,efflux ratio at 2 µM,[3]; [6],1.15
same,Papp A→B at 2 µM,"[3]; apical to basolateral, HBSS pH 7.4, 37 °C, without verapamil",0.191 ± 0.015 ×10⁻⁶ cm/s
same,Papp B→A at 2 µM,"[3]; HBSS pH 7.4, 37 °C, without verapamil",0.32 ± 0.016 ×10⁻⁶ cm/s
same,bioavailability (available after oral administration),[4],11%
C[C@H]1O[C@@H](O[C@H]2[C@@H](O)C[C@H](O[C@H]3[C@@H](O)C[C@H](O[C@H]4CC[C@@]5(C)[C@H](CC[C@@H]6[C@@H]5C[C@@H](O)[C@]5(C)[C@@H](C7=CC(=O)OC7)CC[C@]65O)C4)O[C@@H]3C)O[C@@H]2C)C[C@H](O)[C@@H]1O [digoxin],efflux ratio at 25 µM,P-gp,10.1
same,efflux ratio,Caco-2 cell monolayers,abrogated
